Assay results as given in US10793550B2, “4-piperidin-n-(pyrimidin-4-yl)chroman-7-sulfonamide derivatives as sodium channel inhibitors” (GENENTECH, INC., priority 2017, dated 2020).

Experiments:
[1] = target: T1, hNav1.7 (Homo sapiens, UniProt Q15858); experiment: Tritiated compound competitive binding to membranes from cells expressing hNav1.7 and the β1 subunit; settings: competition with 100 pM [3H]compound, 18 h, room temperature; "this model or another representative model of inhibition"; read-out: Nav1.7 inhib. in vitro
T1 construct: expressed in transfected cells
Protocol: Example 5: Tritiated Compound Binding to Membranes Isolated from Cells that Heterologously Express hNav1.7 and the β1 Subunit
Preparation of membranes containing recombinantly expressed sodium channels: Frozen recombinant cell pellets were thawed on ice and diluted to 4 times the cell pellet weight with ice cold 50 mM Tris HCl, pH 7.4 buffer. The cell suspensions were homogenized on ice using a motorized glass dounce homogeniser. Homogenates were further diluted 8.4 times with ice cold 50 mM Tris HCl, pH 7.4 buffer and then centrifuged at 200×g at 4° C. for 15 min. The supernatants were collected and centrifuged at 10000×g at 4° C. for 50 min. The pellets were then re-suspended in 100 mM NaCl, 20 mM Tris HCl, pH 7.4 buffer containing 1% v/v protease inhibitors (Calbiochem) and re-homogenized on ice. The homogenized membranes were then processed through a syringe equipped with a 26 gauge needle. Protein concentrations were determined by Bradford Assay and the membranes were stored at −80° C.
Radioligand Binding Studies:
Saturation experiments. A competitive NaV1.7 inhibitor having a methyl group was tritiated. Three tritiums were incorporated in place of methyl hydrogens to generate [^3H]compound. Binding of this radioligand was performed in 5 mL borosilicate glass test tubes at room temperature. Binding was initiated by adding membranes to increasing concentrations of [^3H]compound in 100 mM NaCl, 20 mM Tris HCl, pH 7.4 buffer containing 0.01% w/v bovine serum albumin (BSA) for 18h. Non-specific binding was determined in the presence of 1 μM unlabeled compound. After 18h, the reactants were filtered through GF/C glass fiber filters presoaked in 0.5% w/v polyethylene imine. Filters were washed with 15 mL ice cold 100 mM NaCl, 20 mM Tris HCl, pH7.4 buffer containing 0.25% BSA to separate bound from free ligand. [^3H]compound bound to filters was quantified by liquid scintillation counting.
Competitive Binding Experiments:
Binding reactions were performed in 96-well polypropylene plates at room temperature for 18h. In 360 μL, membranes were incubated with 100 pM [^3H]compound and increasing concentrations of Test Compound. Non-specific binding was defined in the presence of 1 μM unlabeled compound. Reactions were transferred and filtered through 96-well glass fiber/C filter plates presoaked with 0.5% polyethylene imine. The filtered reactions were washed 5 times with 200 μL ice cold buffer containing 0.25% BSA. Bound radioactivity was determined by liquid scintillation counting.
Data Analysis: For saturation experiments, non-specific binding was subtracted from total binding to provide specific binding and these values were recalculated in terms of pmol ligand bound per mg protein. Saturation curves were constructed and dissociation constants were calculated using the single site ligand binding model: Beq=(Bmax*X)/(X+Kd), where Beq is the amount of ligand bound at equilibrium, Bmax is the maximum receptor density, Kd is the dissociation constant for the ligand, and X is the free ligand concentration. For competition studies percent inhibition was determined and IC50 values were calculated using a 4 parameter logistic model (% inhibition=(A+((B−A)/(1+((x/C)^D)))) using XLfit, where A and B are the maximal and minimum inhibition respectively, C is the IC50 concentration and D is the (Hill) slope.

[2] = In vivo pharmacokinetic experiments (compound clearance in rats); settings: rat; male rats, IV administration, plasma clearance; read-out: PK (CLp, rat)
Protocol: Example 6: In Vivo Pharmacokinetic Experiments (Compound Clearance in Rats)
In vivo clearance (CLp) of certain compounds was measured in order to evaluate whether these compounds were likely to be good candidates for development. Male rats were housed at controlled temperature and humidity in an alternating 12 hr light/dark cycle with access to food and water ad libitum. All in vivo studies were performed in accordance with Institutional Animal Care and Use Committee guidelines and in harmony with the Guide for Laboratory Animal Care and Use. Rats were administered IV administration of compound. Plasma was harvested from blood samples that were collected from each animal at various timepoints following the administration of compound. Plasma concentration of compound was determined by mass spectrometer, and pharmacokinetic analysis was performed using non-compartmental method using Phoenix WinNonlin. Following oral administration, percent bioavailability was determined for each animal by dividing the dose-normalized area under the plasma concentration-time curve from time 0 to the last measured concentration (AUC0-tlast) obtained following each oral dose by the mean dose-normalized AUC0-tlast of the animals dosed by IV injection.
CLp values above about 40 mL/min/kg in Example 6 are considered to be highly cleared from the body after administration of a compound to a subject, meaning that the exposure may be insufficient to be treated for a disease or disorder as provided herein.

T1 sequence (Q15858 whole entry): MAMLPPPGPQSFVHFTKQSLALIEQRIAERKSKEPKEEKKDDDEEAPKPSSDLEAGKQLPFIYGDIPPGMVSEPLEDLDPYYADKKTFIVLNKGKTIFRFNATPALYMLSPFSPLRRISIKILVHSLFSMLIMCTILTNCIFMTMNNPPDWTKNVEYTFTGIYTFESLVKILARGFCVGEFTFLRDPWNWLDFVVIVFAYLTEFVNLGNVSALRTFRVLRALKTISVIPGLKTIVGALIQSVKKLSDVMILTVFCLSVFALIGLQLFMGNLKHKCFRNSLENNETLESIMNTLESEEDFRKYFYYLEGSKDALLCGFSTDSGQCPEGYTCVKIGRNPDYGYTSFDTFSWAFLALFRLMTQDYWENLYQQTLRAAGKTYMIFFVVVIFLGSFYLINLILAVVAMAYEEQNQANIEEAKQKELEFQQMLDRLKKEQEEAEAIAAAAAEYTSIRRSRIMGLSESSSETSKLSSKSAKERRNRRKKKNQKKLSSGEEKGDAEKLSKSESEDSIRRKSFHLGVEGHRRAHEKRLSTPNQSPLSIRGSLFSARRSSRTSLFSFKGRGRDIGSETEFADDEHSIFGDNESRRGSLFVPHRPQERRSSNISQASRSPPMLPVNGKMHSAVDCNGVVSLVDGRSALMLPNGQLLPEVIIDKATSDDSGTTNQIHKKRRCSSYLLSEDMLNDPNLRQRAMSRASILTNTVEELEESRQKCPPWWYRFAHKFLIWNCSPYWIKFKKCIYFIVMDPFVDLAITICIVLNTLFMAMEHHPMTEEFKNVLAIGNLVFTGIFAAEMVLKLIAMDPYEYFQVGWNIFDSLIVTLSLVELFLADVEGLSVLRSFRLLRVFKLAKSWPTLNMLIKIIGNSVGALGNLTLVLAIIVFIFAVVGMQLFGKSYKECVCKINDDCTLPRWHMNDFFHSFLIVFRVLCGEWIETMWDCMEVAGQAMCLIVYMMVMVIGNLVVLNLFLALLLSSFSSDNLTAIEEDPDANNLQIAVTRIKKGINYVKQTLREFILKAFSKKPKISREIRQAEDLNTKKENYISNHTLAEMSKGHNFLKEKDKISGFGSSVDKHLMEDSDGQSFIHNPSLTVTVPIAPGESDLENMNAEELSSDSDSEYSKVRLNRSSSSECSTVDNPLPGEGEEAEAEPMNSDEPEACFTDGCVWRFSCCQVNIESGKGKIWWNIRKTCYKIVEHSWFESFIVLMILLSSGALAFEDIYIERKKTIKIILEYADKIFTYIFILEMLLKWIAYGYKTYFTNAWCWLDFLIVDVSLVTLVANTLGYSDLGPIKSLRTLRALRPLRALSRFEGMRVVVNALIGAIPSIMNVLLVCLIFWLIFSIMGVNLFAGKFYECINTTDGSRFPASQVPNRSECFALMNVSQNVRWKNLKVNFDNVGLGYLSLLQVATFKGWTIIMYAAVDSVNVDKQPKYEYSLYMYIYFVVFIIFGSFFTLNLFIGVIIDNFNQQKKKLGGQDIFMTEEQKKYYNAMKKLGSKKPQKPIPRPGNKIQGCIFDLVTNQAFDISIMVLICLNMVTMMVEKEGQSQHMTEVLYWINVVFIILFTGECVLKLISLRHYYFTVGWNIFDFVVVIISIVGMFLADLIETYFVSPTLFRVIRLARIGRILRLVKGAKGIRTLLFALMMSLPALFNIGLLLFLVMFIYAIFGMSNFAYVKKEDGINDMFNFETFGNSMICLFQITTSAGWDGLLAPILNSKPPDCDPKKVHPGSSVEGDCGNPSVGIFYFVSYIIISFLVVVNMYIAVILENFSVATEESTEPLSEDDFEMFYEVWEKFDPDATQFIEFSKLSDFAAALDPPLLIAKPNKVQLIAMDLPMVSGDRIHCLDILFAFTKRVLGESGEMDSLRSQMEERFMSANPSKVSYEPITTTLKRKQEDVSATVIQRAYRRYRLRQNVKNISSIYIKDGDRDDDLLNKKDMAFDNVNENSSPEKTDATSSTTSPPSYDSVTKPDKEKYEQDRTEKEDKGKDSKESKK
T1 sequence (Q07699 19-218 partner): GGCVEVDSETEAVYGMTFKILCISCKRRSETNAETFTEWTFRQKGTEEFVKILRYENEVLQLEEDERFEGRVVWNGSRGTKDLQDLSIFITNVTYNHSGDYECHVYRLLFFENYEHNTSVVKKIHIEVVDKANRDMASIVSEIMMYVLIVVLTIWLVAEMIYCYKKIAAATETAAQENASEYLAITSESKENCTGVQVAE

IC50 [1] [nM] | clearance [2] [mL/min/kg] | SMILES
< 0.5 | > 60 | O=S(=O)(Nc1ncns1)c1cc2c(cc1F)[C@@H](N1CC[C@@H](C(F)(F)F)C[C@H]1c1ccccn1)CCO2 [B]
– | > 60 | O=S(=O)(Nc1ncns1)c1ccc2c(c1)OCC[C@@H]2N1CC[C@@H](C(F)(F)F)C[C@H]1c1ccc(F)cc1 [C]
– | < 30 | O=S(=O)(Nc1ccncn1)c1cc2c(cc1F)[C@@H](N1CC[C@@H](C(F)(F)F)C[C@H]1c1ccccn1)CCO2 [Example 1, (S)-6-fluoro-4-((2S,4R)-2-(pyridin-2-yl)-4-(trifluoromethyl)piperidin-1-yl)-N-(pyrimidin-4-yl)chroman-7-sulfonamide]
0.5 | < 30 | O=S(=O)(Nc1ccncn1)c1cc2c(cc1F)[C@@H](N1CC[C@@](O)(C(F)(F)F)C[C@H]1c1ccc(F)cc1)CCO2 [Example 2, (S)-6-fluoro-4-((2S,4S)-2-(4-fluorophenyl)-4-hydroxy-4-(trifluoromethyl)piperidin-1-yl)-N-(pyrimidin-4-yl)chroman-7-sulfonamide]
2.2 | < 30 | O=S(=O)(Nc1ccncn1)c1cc2c(cc1F)[C@@H](N1CC[C@@H](OC(F)F)C[C@H]1c1ccc(F)cc1)CCO2 [Example 3, (S)-4-((2S,4R)-4-(difluoromethoxy)-2-(4-fluorophenyl)piperidin-1-yl)-6-fluoro-N-(pyrimidin-4-yl)chroman-7-sulfonamide]
3.4 | < 30 | C[C@@H]1C[C@H](c2cccc(C(F)(F)F)c2)CCN1[C@H]1CCOc2cc(S(=O)(=O)Nc3ccncn3)c(F)cc21 [Example 4, (S)-6-fluoro-4-((2R,4R)-2-methyl-4-(3-(trifluoromethyl)phenyl)piperidin-1-yl)-N-(pyrimidin-4-yl)chroman-7-sulfonamide]

More lines, now with the values behind:

SMILES | IC50 [1] [nM] | clearance [2] [mL/min/kg]
O=S(=O)(Nc1ncns1)c1ccc2c(c1)OCC[C@@H]2N1CC[C@@](O)(C(F)(F)F)C[C@H]1c1ccc(F)cc1 [A] | 1.1 | > 60
N#C[C@H]1CCN([C@H]2CCOc3cc(S(=O)(=O)Nc4ncns4)ccc32)C(c2ccc(F)cc2)C1 (stereo partly drawn) [D] | – | > 60
N#C[C@H]1CCN([C@H]2CCOc3cc(S(=O)(=O)Nc4ncns4)ccc32)[C@@H](c2ccc(F)cc2)C1 [D] | 11 | –
O=S(=O)(Nc1ncns1)c1ccc2c(c1)OCC[C@@H]2N1CC[C@H](C(F)F)C[C@@H]1c1ccc(F)cc1 [E] | 2.6 | > 60
CS(=O)(=O)[C@@H]1CCN([C@H]2CCOc3cc(S(=O)(=O)Nc4ncns4)ccc32)[C@H](c2ccc(F)cc2)C1 [F] | 8.8 | > 60
